Assay results reported in US20240299484A1, “DILEUCINE COMPOSITIONS AND METHODS OF USE THEREOF” (Ingenious Ingredients, LP, priority 2023, published 2024).
Marks after values point to notes of the source that are not given here.

Legend:
Assay type in all cases: in vivo, Swiss Albino mice
Tfh = assay: Immune health biomarkers (T helper subsets): Tfh; conditions: for Tfh(%) (mg/L): T helper subset in blood after 28 days, mice, n = 8; for Tfh Change over control [%]: vs Exercise Control, 28 days
Description: (§1) Eight 8-week-old male Swiss Albino mice per experimental group were housed in an animal room at a constant temperature (22±3° C.) and humidity (30%-70%) under a 12:12 h light-dark cycle with standard laboratory diet (Purina 5L79, Rat and Mouse 18% protein; PMI Nutrition International, Brentwood, MO, USA). Distilled water was provided ad libitum. All animal experiments were reviewed and approved by the Institutional Animal Ethical Committee (IAEC) of Radiant Research Services Pvt. Ltd (Bangalore, India). All research was conducted in accordance with the guidelines of the committee for the purpose of control and supervision of experiments on animals (CPCSEA Registration Number-1803/PO/RcBi/S/2015/CPCSEA).
(§2) After one week of acclimation, the animals were randomly divided by body weight into different groups (n=8 per group in each test) for oral treatment once a day, at approximately same time each day (+1 hour), for 28 consecutive days: (1) vehicle control; (2) paraxanthine (3) dileucine; (4) paraxanthine+dileucine; (5) L-arginine; (6) L-arginine+dileucine; (7) L-citrulline; and (8) L-citrulline+dileucine. The dose administered to the mice was calculated using US Food and Drug Administration for human equivalence doses (HED), assuming a human weight of 60 kg. The following HED were used in this study: 2,000 mg dileucine (RAMPS™, Ingenious Ingredients, L.P., Lewisville, TX, USA; mouse 411 mg/kg bw), 100 mg paraxanthine, (ENFINITY™, Ingenious Ingredients, L.P Lewisville, TX, USA; mouse dose: 20.5 mg/kg bw/day); 3,000 mg L-arginine (Nanjing Nutrabuilding Bio-tech Co., LTD., No. 270 Jiqingmen Strect, Suning Huigu, Building E6, Room 2105, Nanjing, China 210017; mouse 616.55 mg/kg bw), 3,000 mg L-citrulline (Nanjing Nutrabuilding Bio-tech Co., LTD., No. 270 Jiqingmen Street, Suning Huigu, Building E6, Room 2105, Nanjing, China 210017; mouse 616.55 mg/kg bw). 0.5% Carboxy Methyl Cellulose sodium was used as vehicle and the test item formulations were prepared daily. Dosing was conducted via oral gavage using disposable polypropylene syringes with sterilized stainless steel gavage tubes. The food intake and water consumption were monitored daily, and BW was recorded weekly. The last dose on day 28 was given 1 hour prior to testing.
(§3) Serum and plasma samples were separated by centrifuging the blood at 8000 rpm for 10 mins and analyze the below mentioned biomarkers, Biomarkers: TC, TG, LDL and HDL, CRP, Serum lactate, Ammonia, Glucose, NO, IL-2, IL-6, IL-10. Blood was collected in EDTA tubes for below mentioned biomarkers, Immune health Biomarkers (T helper subsets): TH1, TH2, TH17, Tfh, iTreg.

TH1 = assay: Immune health biomarkers (T helper subsets): TH1; conditions: for TH1(%): T helper subset in blood after 28 days, mice, n = 8; for TH1 Change over control [%]: vs Exercise Control, 28 days
Description: PMI Nutrition International, Brentwood, MO, USA). Distilled water was provided ad libitum. All animal experiments were reviewed and approved by the Institutional Animal Ethical Committee (IAEC) of Radiant Research Services Pvt. Ltd (Bangalore, India). All research was conducted in accordance with the guidelines of the committee for the purpose of control and supervision of experiments on animals (CPCSEA Registration Number-1803/PO/[…]). […] (1) vehicle control; […] (4) paraxanthine+dileucine; […] The dose administered to the mice was calculated using US Food and Drug Administration for human equivalence doses (HED), assuming a human weight of 60 kg. […] Dosing was conducted via oral gavage using disposable polypropylene syringes with sterilized stainless steel gavage tubes. The food intake and water consumption were monitored daily, and BW was recorded weekly. The last dose on day 28 was given 1 hour prior to testing. Serum and plasma samples were separated by centrifuging the blood at 8000 rpm for 10 mins and analyze the below mentioned biomarkers, Biomarkers: TC, TG, LDL and HDL, CRP, Serum lactate, Ammonia, Glucose, NO, IL-2, IL-6, IL-10. Blood was collected in EDTA tubes for below mentioned biomarkers, Immune health Biomarkers (T helper subsets): […]

[1] = Effect on body weight, 28-day oral supplementation with exercise; conditions: for Body Weight (grams) Day −0: Day −0 (baseline); for Body Weight (grams) Day −0 / Body Weight (grams) Day −28: mice, n = 8; for Weight gain in grams: Day −0 to Day −28, oral once a day; for Body Weight (grams) Day −28: Day −28, oral once a day for 28 days; for Percentage weight loss over control: weight gain vs Exercise Control, 28 days
Description: as §1, §2
Individual body weights were recorded at receipt, on the day of randomization, on the first day of treatment before dosing (Day 1) and weekly thereafter. The body weight changes for all the animals were calculated and reported along with the body weight data.

[2] = Treadmill exercise / endurance test; set-up: Percentage Increase over control (number of shocks) / Percentage Increase over control (time on shock zone) / Percentage Increase over control (distance travelled): concentration or dose not given beside the values; conditions: for Distance travelled (m) by mice during treadmill exercise Day −0 / No. of shocks during treadmill exercise Day −0 / Time spent on shock zone during excercise [sec] Day −0: Day −0 (baseline), n = 8, mice; for No. of shocks during treadmill exercise Day −28 / Time spent on shock zone during excercise [sec] Day −28: Day −28, oral once a day for 28 days; for Distance travelled (m) by mice during treadmill exercise Day −28: Day −28, until exhaustion, oral once a day for 28 days; for Distance Increase over Day −0 / No of Shocks Decrease over Day −0 / Time spent on shock zone over Day −0: Day −28 minus Day −0; for Percentage Increase over control (time on shock zone): change vs Exercise Control; for Percentage Increase over control (time on shock zone) / Percentage Increase over control (number of shocks) / Percentage Increase over control (distance travelled): 28 days; for Percentage Increase over control (number of shocks): decrease in shocks vs Exercise Control; for Percentage Increase over control (distance travelled): increase vs Exercise Control
Description: as §1, §2
During the treatment period, exercise training was completed using a motorized treadmill (Exer 3/6, Columbus Instruments international, OH, USA) at a moderate intensity of 20 cm/sec as maximal running speed, an incline of ten degrees and a shock intensity of 0.2 mA, for ten minutes. The speed of the treadmill was manually adjusted by increasing the belt speed by 5 cm/sec every two minutes throughout the total duration of ten minutes. All animals were adapted to this procedure daily 60 minutes after dosing for five days in a week during the treatment period.
On 28th day of each respective treatment, all animals were subjected to a muscle endurance test. Muscle endurance was accomplished on a motorized treadmill at a low to moderate intensity of 5-50 cm/sec as maximal running speed, an incline of ten degrees and a shock intensity of 0.2 mA, with the belt speed being increased by 5 cm/sec every two minutes until it reaches 50 cm/sec. Animals were subjected to the treadmill test until exhaustion. Distance traveled (m) was measured as a marker of exercise performance.

IL-6 = assay: Inflammatory markers: IL-6; conditions: for IL-6 Change over control [%]: vs Exercise Control, 28 days
Description: as §1, §2
(§4) All animals were euthanized by 95% CO2 after 28 days of following their assigned treatment. Blood was collected immediately after euthanization by the retro-orbital route and was immediately centrifuged at 1500×g for 10 min at 4° C. before having all serum transferred into cryogenic tubes and stored at −80° C.
as §3

nitric oxide = assay: NO signaling: nitric oxide level; conditions: for Nitric oxide (μmol/L) (mg/L): after 28 days of supplementation and exercise, mice, n = 8; for Nitric oxide Change over control [%]: vs Exercise Control, 28 days
Description: as §1, §2, §4, §3

IL-2 = assay: Inflammatory markers: IL-2; conditions: for IL-2 (ng/L): after 28 days of supplementation and exercise, mice, n = 8; for IL-2 Change over control [%]: vs Exercise Control, 28 days
Description: as §1, §2, §4, §3

[3] = after 28 days of supplementation and exercise, mice, n = 8

Structure (SMILES)	Tfh(%) (mg/L) (Tfh)	Tfh Change over control [%] (Tfh)	TH1(%) (TH1)	TH1 Change over control [%] (TH1)	Body Weight (grams) Day −0 [1] [grams]	Weight gain in grams [1] [grams]	Body Weight (grams) Day −28 [1]	Percentage weight loss over control [1] [%]	Distance travelled (m) by mice during treadmill exercise Day −0 [2] [m]	No. of shocks during treadmill exercise Day −0 [2]	Time spent on shock zone during excercise [sec] Day −0 [2] [s]	No. of shocks during treadmill exercise Day −28 [2]	Time spent on shock zone during excercise [sec] Day −28 [2]	Distance travelled (m) by mice during treadmill exercise Day −28 [2]	Distance Increase over Day −0 [2] [m]	No of Shocks Decrease over Day −0 [2]	Time spent on shock zone over Day −0 [2] [s]	Percentage Increase over control (time on shock zone) [2] [%]	Percentage Increase over control (number of shocks) [2] [%]	Percentage Increase over control (distance travelled) [2] [%]	also measured
CC(C)C[C@H](NC(=O)[C@@H](N)CC(C)C)C(=O)O [Dileucine, L-Leucyl-L-leucine]	55.72%	613	58.86*** %	−37	24.09	9.14	33.23* grams	−15	38.88	27.63	91	13***	31.88*** sec	328.5*** m	289.62	−14.63	-59.12	94	86	109	IL-6 (pg/ml) (IL-6; [3]): 343** pg/ml; IL-6 Change over control [%] (IL-6): −7%; Nitric oxide (μmol/L) (mg/L) (nitric oxide): 84.83*** μmol/L; Nitric oxide Change over control [%] (nitric oxide): 34%; IL-2 (ng/L) (IL-2): 46.4*** ng/L; IL-2 Change over control [%] (IL-2): 24%
N=C(N)NCCC[C@H](N)C(=O)O [L-Arginine, L-arginine]	44.16*** %	465	53.66*** %	−43	23	10.01	33.01* grams	−7	39.13	30.38	90	16.75***	35.13*** sec	314.25*** m	275.12	−13.63	-54.87	80	73	98	IL-6 (pg/ml) (IL-6; [3]): 351.39** pg/ml; IL-6 Change over control [%] (IL-6): −7%; Nitric oxide (μmol/L) (mg/L) (nitric oxide): 77.98* μmol/L; Nitric oxide Change over control [%] (nitric oxide): 29%; IL-2 (ng/L) (IL-2): 42.04*** ng/L; IL-2 Change over control [%] (IL-2): 23%
NC(=O)NCCC[C@H](N)C(=O)O [L-Citrulline, L-citrulline]	40.87*** %	423	59.71*** %	−36	22.49	9.83	33.01* grams	−9	38.5	28.63	90.88	17.00***	36.63*** sec	312*** m	273.5	−11.63	-54.25	78	48	97	IL-6 (IL-6; [3]): 349.52 pg/mL; IL-6 Change over control [%] (IL-6): −7%; Nitric oxide (μmol/L) (mg/L) (nitric oxide): 77.61 µmol/L; Nitric oxide Change over control [%] (nitric oxide): 28%; IL-2 (ng/L) (IL-2): 42.8*** ng/L; IL-2 Change over control [%] (IL-2): 25%
